In patent US7026355B2, “Use of rhein or diacerhein compounds for the treatment or prevention of vascular diseases” (Transition Therapeutics Inc., priority 2001, dated 2006):
Numbered stars: 1 amine (or outer) side, 2 acyl side, 3 side chain; on linkers, the order of the positions; unused ones are H or OH. Bridge positions count the residues as written; N and C are the ends. Square brackets hold non-standard residues; d marks the D form. Peptide text beside a SMILES is read from it. I, II: the chains in the order shown. Actinocin(9to1) = Cc1c2oc3c(C)ccc(C(=O)[*:1])c3nc-2c(C(=O)[*:2])c(N)c1=O; NMeV = CN[C@H](C(=O)O)C(C)C; Sar = CNCC(=O)O

Key:
[1] = test system: aortic smooth muscle cells; assay: prolonged incubation (1-3 days), cells counted with a hemocytometer; format: cell-based, Rat
Experimental: (§1) The CellTiter 96® AQueous One Solution Cell Proliferation Assay (Promega) was used as a colorimetric method for determining the number of viable cells in proliferation. Cell proliferation assays were performed by adding a small amount of the CellTiter 96® AQueous One Solution Reagent directly to culture wells, incubating for 1–4 hours and then recording absorbance at 490 nm with a 96 well plate reader. The quantity of formazan product as measured by the amount of 490 nm absorbance is known in the art to be directly proportional to the number of living cells in the culture. For the assay, cells were incubated with rhein or diacerhein for 24 h. In addition, cells from selected concentrations are also treated with rhein or diacerhein and are incubated for 1–3 days. The cells are harvested and counted using a hemocytometer. Trypan blue staining was carried out to determine % of viable cells vs dead cells.
Intimal smooth muscle cell (SMC) proliferation plays a key role in atherosclerosis and restenosis following vascular injury. Therefore, rhein or diacerhein is predicted to effectively treat these disease states.

A-10 cells [2] = assay: CellTiter 96 AQueous One Solution Cell Proliferation Assay; format: cell-based, Rat; conditions: for Measure of Proliferative Activity (Absorbance at 490 nm): 24 h, no treatment 0.775; for proliferative activity as compared to untreated cells: concentration higher than 10^−7 M
Experimental: A-10 cells were seeded at 1.0×10^3 cells/well in 96 well plates using Dulbecco's Modified Eagle Medium™ (Gibco BRL Cat. # 11885-084), 10% FBS and 1% Antibiotic Antimycotic (Gibco BRL Cat. # 15240) and allowed to grow overnight. Prior to treatment, cells were washed and the culture medium was replaced with culture medium containing either rhein or diacerhein at varying concentrations ranging from 10^−4 to 10^−8M.
as §1

A-10 cells [3] = assay: Trypan blue staining, % of viable cells vs dead cells; format: cell-based; conditions: no treatment 96.2%
Experimental: as §1

[4] = 5 to 50 mg/kg for periods as long as 50 weeks; cited from earlier work
[5] = test system: Rat aortic smooth muscle cells (A-10 cells); assay: in vitro assay of smooth muscle cell migration after scrape injury; format: cell-based; conditions: incubation 20 h
Experimental: The following in vitro assay was conducted to illustrate the effect of diacerhein on smooth muscle cell migration. Increased smooth muscle cell migration following injury is one of the predominant causes of obstruction of the vascular system following stenting and other vascular procedures.
Rat aortic smooth muscle cells (A-10 cells) were seeded at 2.5×10^5 cells/well in 6 well plates using Dulbecco's Modified Eagle Medium™ (Gibco BRL Cat. # 11885-084), 10% FBS and 1% Antibiotic Antimycotic (Gibco BRL Cat. # 15240). Confluency of cells after about 8 h was between 80˜90%. Cells were injured with the single edge cell scraper (one injury/well) then washed twice with PBS and treated with diacerhein at concentrations ranging from 50 μM to 100 μM. Images were taken using a X5 modulation objective (Zeiss, Germany) attached to a Zeiss Axiovert 100 inverted microscope equipped with Hoffman Modulation contrast optical filters (Greenvale, N.Y.).
The images were taken at zero time and following the incubation of smooth muscle cells with diacerhein for a period of 20 h.

iron regulatory protein = conditions: inflamed human monocytes; cited from earlier work
[6] = test system: prostaglandin E2 synthesis; conditions: cited from earlier work
[7] = clinical trials of actinomycin-D eluting stents; cited from earlier work

Structure (SMILES)	anti-proliferative activity on prolonged incubation (FIG. 2) [1]	Measure of Proliferative Activity (Absorbance at 490 nm) (A-10 cells [2]; Treatment with 2.5 × 10^−5 M)	Measure of Proliferative Activity (Absorbance at 490 nm) (A-10 cells [2]; Treatment with 5.0 × 10^−5 M)	Measure of Proliferative Activity (Absorbance at 490 nm) (A-10 cells [2]; Treatment with 7.5 × 10^−5 M)	Measure of Proliferative Activity (Absorbance at 490 nm) (A-10 cells [2]; Treatment with 10^−4 M)	Measure of Proliferative Activity (Absorbance at 490 nm) (A-10 cells [2]; Treatment with 10^−5 M)	Measure of Proliferative Activity (Absorbance at 490 nm) (A-10 cells [2]; Treatment with 10^−6 M)	Measure of Proliferative Activity (Absorbance at 490 nm) (A-10 cells [2]; Treatment with 10^−7 M)	proliferative activity as compared to untreated cells (A-10 cells [2])	Percentage of viable cells (A-10 cells [3]; Treatment with 10^−4 M)	Percentage of viable cells (A-10 cells [3]; Treatment with 10^−5 M)	Percentage of viable cells (A-10 cells [3]; Treatment with 10^−6 M)	severity of osteoarthritis [4]	migration of smooth muscle cells ([5]; 50 μM)	migration of smooth muscle cells ([5]; 100 μM)	iron regulatory protein activation (iron regulatory protein)	prostaglandin E2 synthesis [6]	prevention of restenosis [7]
O=C(O)c1cc(O)c2c(c1)C(=O)c1cccc(O)c1C2=O [Rhein, 9,10-dihydro-4,5-dihydroxy-9,10-dioxo-2-anthracenecarboxylic acid]	anti-proliferative activity	0.577	0.518	0.460	0.430	0.675	0.738	0.891	decrease in proliferative activity	97.1%	96.0%	97.5%						
CC(=O)Oc1cccc2c1C(=O)c1c(OC(C)=O)cc(C(=O)O)cc1C2=O [Diacerhein, 4,5-bis(acetyloxy)-9,10-dihydro-4,5dihydroxy-9,10-dioxo-2-anthracenecarboxylic acid]	anti-proliferative activity	0.561	0.419	0.408	0.380	0.646	0.710	0.738	decrease in proliferative activity	97.0%	97.5%	96.2%	reduced the severity of osteoarthritis	significantly inhibited	significantly inhibited	inhibits iron regulatory protein activation	stimulates prostaglandin E2 synthesis	
Cc1c2oc3c(C)ccc(C(=O)N[C@@H]4C(=O)N[C@H](C(C)C)C(=O)N5CCC[C@H]5C(=O)N(C)CC(=O)N(C)[C@@H](C(C)C)C(=O)O[C@@H]4C)c3nc-2c(C(=O)N[C@@H]2C(=O)N[C@H](C(C)C)C(=O)N3CCC[C@H]3C(=O)N(C)CC(=O)N(C)[C@@H](C(C)C)C(=O)O[C@@H]2C)c(N)c1=O [actinomycin D] (I: T[dV]P[Sar][NMeV] / II: T[dV]P[Sar][NMeV]; ester I:1-I:C, II:1-II:C; linker I:N-II:N via Actinocin(9to1))																		ineffectiveness
